Reference: patent US10308660B2, “Compounds and compositions for inhibiting the activity of SHP2” (Novartis AG, priority 2015, dated 2019)

biological target: SHP2 (Homo sapiens (Human), UniProt Q06124); experiment: SHP2 allosteric inhibition assay (DiFMUP prompt fluorescence); format: biochemical; conditions: 0.5 nM SHP2 activated with 0.5 μM peptide IRS1_pY1172(dPEG8)pY1222; substrate DiFMUP; 25° C.

Structure (SMILES)	IC50
C[C@@H]1OCC2(CCN(c3nc(N)c(-c4ccc(OCC5CC5)cc4)c(=O)n3C)CC2)[C@@H]1N [Example 147]	39 nM
Cn1c(N2CCC3(CC2)C[C@@H](C(F)(F)F)C[C@H]3N)nc(N)c(-c2cccc(Cl)c2Cl)c1=O [Example 148]	43 nM
C[C@@H]1OCC2(CCN(c3nc(N)c(-c4ccc(F)cc4F)c(=O)n3C)CC2)[C@@H]1N [Example 156]	48 nM
COc1ccc(-c2c(N)nc(N3CCC4(CC3)CO[C@@H](C)[C@H]4N)n(C)c2=O)cc1F [Example 157]	52 nM
COc1ccc(-c2c(N)nc(N3CCC4(CC3)CO[C@@H](C)[C@H]4N)n(C)c2=O)cc1Cl [Example 162]	66 nM
C[C@@H]1OCC2(CCN(c3nc(N)c(-c4ccc(C5CCCCC5)cc4)c(=O)n3C)CC2)[C@@H]1N [Example 163]	73 nM
COCCOc1ccc(-c2c(N)nc(N3CCC4(CC3)CO[C@@H](C)[C@H]4N)n(C)c2=O)cc1 [Example 170]	169 nM
C[C@@H]1OCC2(CCN(c3nc(N)c(-c4cncc(Cl)c4)c(=O)n3C)CC2)[C@@H]1N [Example 171]	172 nM
COc1ccc(-c2c(N)nc(N3CCC4(CC3)CO[C@@H](C)[C@H]4N)n(C)c2=O)cc1C [Example 173]	175 nM
C[C@@H]1OCC2(CCN(c3nc(N)c(-c4ccc(C5CCOCC5)cc4)c(=O)n3C)CC2)[C@@H]1N [Example 178]	412 nM
C[C@@H]1OCC2(CCN(c3nc(N)c(-c4cc(Cl)cc(Cl)c4)c(=O)n3C)CC2)[C@@H]1N [Example 179]	421 nM
C[C@@H]1OCC2(CCN(c3nc(N)c(-c4cc(Cl)cc(Cl)c4Cl)c(=O)n3C)CC2)[C@@H]1N [Example 180]	515 nM
Cc1ncccc1-c1c(N)nc(N2CCC3(CC2)CO[C@@H](C)[C@H]3N)n(C)c1=O [Example 183]	1590 nM
C[C@@H]1OCC2(CCN(c3nc(N)c(-c4ccc(N5CCOCC5)cc4)c(=O)n3C)CC2)[C@@H]1N [Example 185]	2120 nM
C[C@@H]1OCC2(CCN(c3nc(N)c(-c4cc(Cl)ccc4Cl)c(=O)n3C)CC2)[C@@H]1N [Example 186]	2230 nM
C[C@@H]1OCC2(CCN(c3nc(N)c(-c4ccnc(Cl)c4)c(=O)n3C)CC2)[C@@H]1N [Example 187]	2950 nM
Cn1c(N2CCC3(CC2)COC[C@H]3N)nc(N)c(-c2cccc(Cl)c2Cl)c1=O [Example 190]	69 nM
Cn1c(N2CCC3(CCC[C@H]3N)CC2)nc(N)c(-c2cccc(Cl)c2Cl)c1=O [Example 192]	21 nM
Cn1c(N2CCC(C)(CN)CC2)nc(N)c(-c2cccc(Cl)c2Cl)c1=O [Example 193]	40 nM
CC1(CN)CCN(c2ncc(-c3cccc(Cl)c3Cl)c(=O)[nH]2)CC1 [Example 200]	> 100000 nM
C[C@@H]1OCC2(CCN(c3ncc(-c4cccc(Cl)c4Cl)c(=O)[nH]3)CC2)[C@@H]1N [Example 201]	3340 nM
N[C@@H]1CCCC12CCN(c1ncc(-c3cccc(Cl)c3Cl)c(=O)[nH]1)CC2 [Example 202]	782 nM

Second part, the compound after the results:

IC50	Structure (SMILES)
34 nM	C[C@@H]1OCC2(CCN(c3nc(N)c(-c4ccc(OC(F)F)cc4)c(=O)n3C)CC2)[C@@H]1N [Example 145]
38 nM	C[C@@H]1OCC2(CCN(c3nc(N)c(-c4ccc(F)cc4)c(=O)n3C)CC2)[C@@H]1N [Example 146]
43 nM	C[C@@H]1OCC2(CCN(c3nc(N)c(-c4ccc(OCc5ccccc5)cc4)c(=O)n3C)CC2)[C@@H]1N [Example 149]
44 nM	Cn1c(N2CCC3(CC2)CC(F)(F)C[C@H]3N)nc(N)c(-c2ccccc2)c1=O [Example 150]
44 nM	C[C@@H]1OCC2(CCN(c3nc(N)c(-c4cccc(F)c4)c(=O)n3C)CC2)[C@@H]1N [Example 151]
45 nM	C[C@@H]1OCC2(CCN(c3nc(N)c(-c4ccccc4Cl)c(=O)n3C)CC2)[C@@H]1N [Example 152]
46 nM	C[C@@H]1OCC2(CCN(c3nc(N)c(-c4ccccc4F)c(=O)n3C)CC2)[C@@H]1N [Example 153]
46 nM	Cn1c(N2CCC3(CC2)C[C@H](F)C[C@H]3N)nc(N)c(-c2ccccc2)c1=O [Example 154]
48 nM	Cn1c(N2CCC3(CC2)C[C@H](F)C[C@H]3N)nc(N)c(-c2cccc(Cl)c2Cl)c1=O [Example 155]
53 nM	C[C@@H]1OCC2(CCN(c3nc(N)c(-c4ccc(F)c(Cl)c4)c(=O)n3C)CC2)[C@@H]1N [Example 158]
56 nM	COc1ccc(-c2c(N)nc(N3CCC4(CC3)CO[C@@H](C)[C@H]4N)n(C)c2=O)cc1 [Example 159]
63 nM	C[C@@H]1OCC2(CCN(c3nc(N)c(-c4ccc(C5CC5)cc4)c(=O)n3C)CC2)[C@@H]1N [Example 160]
63 nM	Cn1c(N2CCC3(CC2)C[C@@H](C(F)(F)F)C[C@H]3N)nc(N)c(-c2ccccc2)c1=O [Example 161]
75 nM	C[C@@H]1OCC2(CCN(c3nc(N)c(-c4cc(F)cc(F)c4)c(=O)n3C)CC2)[C@@H]1N [Example 164]
78 nM	C[C@@H]1CC2(CCN(c3nc(N)c(-c4ccccc4)c(=O)n3C)CC2)[C@H](N)C1(F)F [Example 165]
88 nM	C[C@@H]1OCC2(CCN(c3nc(N)c(-c4ccc(N(C)C)cc4)c(=O)n3C)CC2)[C@@H]1N [Example 166]

IC50	Structure (SMILES)
89 nM	C[C@@H]1CC2(CCN(c3nc(N)c(-c4cccc(Cl)c4Cl)c(=O)n3C)CC2)[C@H](N)C1(F)F [Example 167]
107 nM	C[C@@H]1OCC2(CCN(c3nc(N)c(-c4ccc(-c5ccccc5)cc4)c(=O)n3C)CC2)[C@@H]1N [Example 168]
119 nM	C[C@@H]1OCC2(CCN(c3nc(N)c(-c4ccc(OC(F)(F)F)cc4)c(=O)n3C)CC2)[C@@H]1N [Example 169]
174 nM	C[C@H]1C[C@@H](N)C2(CCN(c3nc(N)c(-c4ccc(Cl)cc4)c(=O)n3C)CC2)C1 [Example 172]
183 nM	C[C@@H]1OCC2(CCN(c3nc(N)c(-c4ccc(C(C)(C)C)cc4)c(=O)n3C)CC2)[C@@H]1N [Example 174]
256 nM	C[C@@H]1OCC2(CCN(c3nc(N)c(-c4ccc(C#N)cc4)c(=O)n3C)CC2)[C@@H]1N [Example 175]
271 nM	Cc1ccccc1-c1c(N)nc(N2CCC3(CC2)CO[C@@H](C)[C@H]3N)n(C)c1=O [Example 176]
309 nM	C[C@@H]1OCC2(CCN(c3nc(N)c(-c4ccc(Cl)c(Cl)c4)c(=O)n3C)CC2)[C@@H]1N [Example 177]
840 nM	COc1ccccc1-c1c(N)nc(N2CCC3(CC2)CO[C@@H](C)[C@H]3N)n(C)c1=O [Example 181]
1060 nM	C[C@@H]1OCC2(CCN(c3nc(N)c(-c4ccccn4)c(=O)n3C)CC2)[C@@H]1N [Example 182]
1690 nM	C[C@@H]1OCC2(CCN(c3nc(N)c(-c4cccc(C(F)(F)F)c4)c(=O)n3C)CC2)[C@@H]1N [Example 184]
15 nM	C[C@@H]1CC2(CCN(c3nc(N)c(-c4ccccc4)c(=O)n3C)CC2)[C@H](N)[C@H]1F [Example 188]
41 nM	Cn1c(N2CCC3(CC2)COC[C@H]3N)nc(N)c(-c2ccccc2)c1=O [Example 189]
27 nM	Cn1c(N2CCC3(CCC[C@H]3N)CC2)nc(N)c(-c2ccccc2)c1=O [Example 191]
369 nM	Cc1nc(N2CCC3(CC2)CO[C@@H](C)[C@H]3N)n(C)c(=O)c1-c1ccccc1 [Example 197]
